What all share (format): biochemical
Test [1] is described as follows: Anti-oxidant assay (DPPH radical scavenging activity). For orientation: Loss of DPPH colour is used to gauge radical scavenging.
Test [2] is described as follows: Hydroxyl radical scavenging activity. The conditions noted are these: for TBARS Inhibition (%): Table 6 (hydroxyl radical scavenging).
Test [3] can be described thus: Lipid peroxidation (TBARS) inhibition assay. The conditions noted are these: for TBARS Inhibition (%): Table 7.

SMILES strings stand for the structures.

Consider `O=C1O[C@H]([C@@H](O)CO)C(O)=C1O` [Ascorbic Acid, ascorbic acid], for which the “DPPH radical inhibition (%)” value worked out at 29.93% in test [1] (Conc. 3.125 μl/ml); 52.42% in test [1] (Conc. 6.25 μl/ml); 71.28% in test [1] (Conc. 12.5 μl/ml); 87.88% in test [1] (Conc. 25 μl/ml); 92.05% in test [1] (Conc. 50 μl/ml); 95.01% in test [1] (Conc. 100 μl/ml). Further, the “DPPH radical inhibition (%)” value in test [1] (Conc. 200 μl/ml) is 29.93%. Besides, the “Inhibitory concentration [IC50], DPPH” value in test [1] (from graph of % inhibition vs concentration) was 17.30 µg/mL. In test [2], the “Inhibitory concentration [IC50], hydroxyl radical” value is 30.83 µg/mL. Moreover, the “TBARS Inhibition (%)” value was found to be 35.27% in test [2] (Conc. 6.25 μl/ml); 42.80% in test [2] (Conc. 12.5 μl/ml); 53.76% in test [2] (Conc. 25 μl/ml); 64.72% in test [2] (Conc. 50 μl/ml); 64.43% in test [2] (Conc. 100 μl/ml); 76.71% in test [2] (Conc. 200 μl/ml). Besides, the “TBARS Inhibition (%)” value in test [3] (Conc. 6.25 μl/ml) was found to be 36.0%; in test [3] (Conc. 12.5 μl/ml), 47.69%; in test [3] (Conc. 25 μl/ml), 54.76%; in test [3] (Conc. 50 μl/ml), 62.15%; in test [3] (Conc. 100 μl/ml), 68.92%; in test [3] (Conc. 200 μl/ml) it was 72.61%. Moreover, the “Inhibitory concentration [IC50], lipid peroxidation (TBARS)” value in test [3] is 20.32 µg/mL.

Values taken from patent publication US20230134228A1, “SYNERGISTIC HERBAL COMPOSITION AS A BROAD-SPECTRUM PROPHYLACTIC MAJOR AND METHOD TO PREPARE THE SAME” (priority 2020, published 2023).
